Test results taken from US20250340591A1, “COMPOSITION FOR PREVENTING OR TREATING INFLAMMATORY BOWEL DISEASE CONTAINING NOVEL COMPOUND” (ANYGEN CO., LTD., priority 2021, published 2025).
Read-outs that look alike come from different tables or passages of the source. Square brackets hold non-standard residues; d marks the D form. Ends that are not written are not given here. Peptide text beside a SMILES is read from it. * marks the point of attachment. His(Trt) = N[C@@H](Cc1cn(C(c2ccccc2)(c2ccccc2)c2ccccc2)cn1)C(=O)O; His(τ-CHPh2) = N[C@@H](Cc1cn(C(c2ccccc2)c2ccccc2)cn1)C(=O)O; Biotin = O=C1N[C@H]2[C@H](CS[C@H]2CCCCC(=O)*)N1; His(τ-Bzl) = N[C@@H](Cc1cn(Cc2ccccc2)cn1)C(=O)O; dPhe(4-CF3) = N[C@H](Cc1ccc(C(F)(F)F)cc1)C(=O)O; dPhe(4-Me) = Cc1ccc(C[C@@H](N)C(=O)O)cc1; Phe(4-Me) = Cc1ccc(C[C@H](N)C(=O)O)cc1; Dmt = Cc1cc(O)cc(C)c1C[C@H](N)C(=O)O; Octanoyl = CCCCCCCC(=O)*

Target: T1, GPR39 (Homo sapiens, UniProt O43194)
T1 sequence (O43194 1-453): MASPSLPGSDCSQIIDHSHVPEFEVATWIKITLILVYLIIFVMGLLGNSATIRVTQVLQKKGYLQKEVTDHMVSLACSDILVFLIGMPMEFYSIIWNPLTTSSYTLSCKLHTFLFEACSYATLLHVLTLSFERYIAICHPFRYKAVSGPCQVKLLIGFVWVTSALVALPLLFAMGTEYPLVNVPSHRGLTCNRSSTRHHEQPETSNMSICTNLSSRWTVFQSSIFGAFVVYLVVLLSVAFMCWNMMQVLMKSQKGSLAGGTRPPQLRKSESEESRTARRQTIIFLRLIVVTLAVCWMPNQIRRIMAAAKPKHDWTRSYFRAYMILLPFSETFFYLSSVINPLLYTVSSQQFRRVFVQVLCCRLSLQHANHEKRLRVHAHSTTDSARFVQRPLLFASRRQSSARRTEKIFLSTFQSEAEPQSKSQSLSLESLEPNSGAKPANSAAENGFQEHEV
Assay: luciferase assay system (SRE luciferase reporter gene, CV-1 cells expressing GPR39)
Type: cell-based
Set-up: expressed in transfected cells; host or cells: CV-1 fibroblast cell line (Korea Cell Line Bank), adenoviral transduction at 50 MOI

[1] = CV-1 cells, GPR39 and SRE luciferase adenovirus, 6 hours treatment

Row | ECmax (−fold induction over basal) [fold induction over basal] | Compound | other results
1 |  | CCCCCCCC(=O)NCCCC[C@H](NC(=O)[C@@H](N)Cc1cn(C(c2ccccc2)(c2ccccc2)c2ccccc2)cn1)C(=O)N[C@@H](Cc1ccccc1)C(=O)N[C@@H](Cc1ccc(O)cc1)C(=O)N[C@@H](CO)C(=O)N[C@@H](CCC(N)=O)C(=O)N[C@@H](CC(=O)O)C(=O)NCC(=O)N[C@@H](C)C(=O)N[C@@H](CCCNC(=N)N)C(=O)N[C@@H](Cc1ccccc1)C(N)=O [HKFY-41, (3S,6S,9S,12S,15S,18S)-3-((2-(((S)-1-(((S)-1-(((S)-1-amino-1-oxo-3-phenylpropan-2-yl)amino)-5-guanidino-1-oxopentan-2-yl)amino)-1-oxopropan-2-yl)amino)-2-oxoethyl)carbamoyl)-18-((S)-2-amino-3-(1-trityl-1H-imidazol-4-yl)propanamido)-6-(3-amino-3-oxopropyl)-15-benzyl-12-(4-hydroxybenzyl)-9-(hydroxymethyl)-5,8,11,14,17,24-hexaoxo-4,7,10,13,16,23-hexaazahentriacontanoic acid] (H-[His(Trt)]K(Octanoyl)FYSQDGARF-NH2) | ECmax (−fold induction over basal) [1]: 12.2 ± 0.02 fold induction over basal
2 | 15.9 ± 4.12 | CCCCCCCC(=O)NCCCC[C@H](NC(=O)[C@@H](N)Cc1cn(S(=O)(=O)c2ccc(C)cc2)cn1)C(=O)N[C@H](Cc1ccc(C)cc1)C(=O)N[C@@H](Cc1ccc(O)cc1)C(=O)O [HKFY-75, ((R)-2-((S)-2-((S)-2-amino-3-(1-tosyl-1H-imidazol-4-yl)propanamido)-6-octanamidohexanamido)-3-(p-tolyl)propanoyl)-L-tyrosine] | 
3 | 14.4 ± 2.7 | CCCCCCCC(=O)NCCCC[C@H](NC(=O)[C@@H](N)Cc1cn(C(c2ccccc2)(c2ccccc2)c2ccccc2)cn1)C(=O)N[C@@H](Cc1ccc(O)cc1)C(=O)N[C@@H](Cc1ccc(O)cc1)C(=O)O [HKFY-48, N6-octanoyl-N2-(Nt-trityl-L-histidyl)-L-lysyl-L-tyrosyl-L-tyrosine] (H-[His(Trt)]K(Octanoyl)YY-OH) | 
4 |  | CCCCCCCC(=O)NCCCC[C@H](NC(=O)[C@@H](N)Cc1cn(C(c2ccccc2)c2ccccc2)cn1)C(=O)N[C@H](Cc1ccc(C)cc1)C(=O)N[C@@H](Cc1c(C)cc(O)cc1C)C(=O)O [HKFY-36, (S)-2-((R)-2-((S)-2-((S)-2-amino-3-(1-benzhydryl-1H-imidazol-4-yl)propanamido)-6-octanamidohexanamido)-3-(p-tolyl)propanamido)-3-(4-hydroxy-2,6-dimethylphenyl)propanoic acid] (H-[His(τ-CHPh2)]K(Octanoyl)[dPhe(4-Me)][Dmt]-OH) | ECmax (−fold induction over basal) [1]: 9.9 ± 0.28 fold induction over basal
5 | 9.2 ± 2.58 | CCCCCCCC(=O)NCCCC[C@H](NC(=O)[C@@H](N)Cc1cn(Cc2ccccc2)cn1)C(=O)N[C@@H](Cc1ccccc1)C(=O)N[C@@H](Cc1ccc(O)cc1)C(=O)O [HKFY-3, N2-(Nt-benzyl-L-histidyl)-N6-octanoyl-L-lysyl-L-phenylalanyl-L-tyrosine] (H-[His(τ-Bzl)]K(Octanoyl)FY-OH) | 
6 | 21.5 ± 2.7 | CCCCCCCC(=O)NCCCC[C@H](NC(=O)[C@@H](N)Cc1cn(C(c2ccccc2)c2ccc(F)cc2F)cn1)C(=O)N[C@H](Cc1ccc(C)cc1)C(=O)N[C@@H](Cc1ccc(O)cc1)C(=O)O (stereo partly drawn) [HKFY-32, ((2R)-2-((2S)-2-((2S)-2-amino-3-(1-((2,4-difluorophenyl)(phenyl)methyl)-1H-imidazol-4-yl)propanamido)-6-octanamidohexanamido)-3-(p-tolyl)propanoyl)-L-tyrosine] | 
7 | 10.4 ± 1.12 | CCCCCCCC(=O)NCCCC[C@H](NC(=O)[C@H](Cc1cn(C(c2ccccc2)c2ccccc2)cn1)NC(=O)CCCC[C@@H]1SC[C@@H]2NC(=O)N[C@@H]21)C(=O)N[C@@H](Cc1ccc(C)cc1)C(=O)N[C@@H](Cc1ccc(O)cc1)C(=O)O [HKFY-72, ((S)-2-((S)-2-((S)-3-(1-benzhydryl-1H-imidazol-4-yl)-2-(5-((3aS,4S,6aR)-2-oxohexahydro-1H-thieno[3,4-d]imidazol-4-yl)pentanamido)propanamido)-6-octanamidohexanamido)-3-(p-tolyl)propanoyl)-L-tyrosine] (Biotin-[His(τ-CHPh2)]K(Octanoyl)[Phe(4-Me)]Y-OH) | 
8 | 15 ± 2.12 | CCCCCCCC(=O)NCCCC[C@H](NC(=O)[C@@H](N)CC1=CN(CCc2ccccc2)CN1CCc1ccccc1)C(=O)N[C@@H](Cc1ccccc1)C(=O)N[C@@H](Cc1ccc(O)cc1)C(=O)O [HKFY-6, N2-((S)-2-amino-3-(1,3-diphenethyl-2,3-dihydro-1H-imidazol-4-yl)propanoyl)-N6-octanoyl-L-lysyl-L-phenylalanyl-L-tyrosine] | 
9 | 20.2 ± 3.5 | CCCCCCCC(=O)NCCCC[C@H](NC(=O)[C@@H](N)Cc1cn(C(c2ccccc2)c2ccccc2)cn1)C(=O)N[C@H](Cc1ccc(C)cc1)C(=O)N[C@@H](Cc1ccc(O)cc1)C(N)=O [HKFY-66, N-((S)-5-((S)-2-amino-3-(1-benzhydryl-1H-imidazol-4-yl)propanamido)-6-(((R)-1-(((S)-1-amino-3-(4-hydroxyphenyl)-1-oxopropan-2-yl)amino)-1-oxo-3-(p-tolyl)propan-2-yl)amino)-6-oxohexyl)octanamide] (H-[His(τ-CHPh2)]K(Octanoyl)[dPhe(4-Me)]Y-NH2) | 
10 | 14.2 ± 3.75 | CCCCCCCC(=O)NCCCC[C@H](NC(=O)[C@@H](N)Cc1cn(C(c2ccccc2)(c2ccccc2)c2ccccc2)cn1)C(=O)N[C@H](Cc1ccc(C(F)(F)F)cc1)C(=O)N[C@@H](Cc1ccc(O)cc1)C(=O)O [HKFY-76, ((R)-2-((S)-2-((S)-2-amino-3-(1-trityl-1H-imidazol-4-yl)propanamido)-6-octanamidohexanamido)-3-(4-(trifluoromethyl)phenyl)propanoyl)-L-tyrosine] (H-[His(Trt)]K(Octanoyl)[dPhe(4-CF3)]Y-OH) | 
11 | 23.88 ± 3.04 | CCCCCCCC(=O)NCCCC[C@H](NC(=O)[C@@H](N)Cc1cn(C(c2ccccc2)(c2ccccc2)c2ccccc2)cn1)C(=O)N[C@H](Cc1ccc(C)cc1)C(=O)N[C@@H](Cc1ccc(O)cc1)C(=O)O [HKFY-30, ((R)-2-((S)-2-((S)-2-amino-3-(1-trityl-1H-imidazol-4-yl)propanamido)-6-octanamidohexanamido)-3-(p-tolyl)propanoyl)-L-tyrosine] (H-[His(Trt)]K(Octanoyl)[dPhe(4-Me)]Y-OH) | activity level for GPR39 (in words) (comment on Table 3): higher activity level than other HKFY derivatives; activity and ECmax value for GPR39 (in words) (comment on Table 3, derivatives composed of d-Phe(methyl)): most excellent activity and high ECmax value
12 | 8 ± 2.12 | CCCCCCCC(=O)NCCCC[C@H](NC(=O)[C@H](CO)NC(=O)CNC(=O)[C@@H](N)Cc1cn(C(c2ccccc2)(c2ccccc2)c2ccccc2)cn1)C(=O)N[C@@H](Cc1ccccc1)C(=O)N[C@@H](Cc1ccc(O)cc1)C(=O)O [HKFY-53, N6-octanoyl-N2-(Nt-trityl-L-histidylglycyl-L-seryl)-L-lysyl-L-phenylalanyl-L-tyrosine] (H-[His(Trt)]GSK(Octanoyl)FY-OH) | 

Row | Compound | ECmax (−fold induction over basal) [fold induction over basal] | other results
13 | N2-(Nt-(naphthalen-1-ylmethyl)-L-histidyl)-N6-octanoyl-L-lysyl-L-phenylalanyl-L-tyrosine (H(naphthalen‑1‑ylmethyl)K(Octanoyl)FY-OH) [HKFY-10] | 14 ± 2.12 | EC50 [1]: 46.5 ± 1.1 µM
